In patent US11452781B2, “Method of preventing and treating type 1 diabetes, allograft rejection and lung fibrosis (by targeting the ATP/P2X7R axis)” (CHILDREN'S MEDICAL CENTER CORPORATION, priority 2013, dated 2022):
Entries after “also recorded” stand apart in the source; their conditions may differ.

What was measured:
NOD mice = assay: Diabetes onset in NOD mice (prevention); type: in vivo, mouse
Procedure: Untreated NOD mice invariably developed diabetes by 15-20 weeks of age (FIGS. 5A-5E). […] Rapamycin (0.1 mg/kg for 10 days) treatment was again synergistic with oATP treatment, inducing a further delay in the onset of diabetes (FIG. 7) with 70% of mice protected from diabetes at 25 weeks, while rapamycin treatment alone was ineffective in delaying diabetes in NOD mice (FIG. 7). This group of experiments confirmed that the ATP/P2X7R axis is indeed relevant to allo- and autoimmune responses in vivo and that P2X7R targeting can be viewed as a novel strategy to curb both responses.
Consequently, NOD mice were treated with oATP.

[1] = system: splenocytes of islet-transplanted mice; assay: Immune profiling of islet-transplanted mice (ELISPOT, flow cytometry, serum cytokines); type: in vivo, mouse; settings: day 14
Procedure: The effect of oATP treatment on the immune system of transplanted mice was tested. Splenocytes were collected in untreated or oATP-treated mice at day 14 after transplantation and challenged ex vivo in an ELISPOT assay with BALB/c irradiated splenocytes.
Immune profiling of islet-transplanted oATP-treated and untreated mice was performed at day 14 after transplantation.

[2] = system: OT1 splenocytes (CD8 T cells); assay: OT1 splenocytes stimulated with OVA peptide, proliferation; type: cell-based, mouse; settings: oATP 100 μM
Procedure: (§1) FIG. 16A depicts a graph of CD8 activation levels. To better assess the response of CD8 T cells, splenocytes isolated from OT1 mice were stimulated with OVA peptide with and without (positive control) oATP (100 μM) and T cell proliferation determined. […] FIG. 16C depicts photomicroscopy images and a graph of cell growth and survival. Freshly isolated human peripheral blood mononuclear cells (PBMCs, 4×10^5/ml) were applied onto pre-seeded A549 cells (at ˜20% confluency). Cells were cultured in RPMI medium supplemented with interferon gamma (IFNγ) with or without oATP for 7 days. […]
(§2) Outcome Measures—In vivo assessment of transplanted lung function was performed by thoracic CT scan imaging and measuring peak airway pressures (PawP) as previously described {Bizargity, #22}. ATP levels were measured from transplanted lung bronchoalveolar lavage fluid (BAL) by bioluminescent detection using Enliten ATP assay system (FF2000, Promega Corporation, Madison, Wis.). […] Immunohistochemistry was performed on frozen lung tissue sections utilizing CD4 and CD8 antibodies and isotype controls and assessed based on the average of 10 high power fields/lung allograft. […]
To assess the inhibitory actions of oATP upon CD8 cells, a CD8 specific response was analyzed by utilizing OT1 splenocytes stimulated with OVA peptide. […]

[3] = system: A549 cells co-cultured with PBMCs; assay: Cytotoxicity of human PBMC upon IFN-γ stimulated A549 cells, 7 days co-culture; type: cell-based; settings: increasing doses of oATP
Procedure: as §1, with “days. Shown are representative images of A549 cells, and A549 cells co-cultured with PBMCs in the presence and absence of 200 μM oATP. Images were taken on day 7 of the co-culture.” for “days.”
as §2

periodate-oxidized ATP [oATP]
delay of diabetes onset (NOD mice; 4-week-old NOD mice, daily i.p. for 30 days (early prevention)): delays diabetes onset
delay of diabetes onset (NOD mice; 10-week-old NOD mice (late prevention)): delay
mice protected from diabetes at 25 weeks of age (NOD mice; 10-week-old NOD mice, oATP 250 μg i.p. daily 14 days, Rapamycin 0.1 mg/kg 10 days): 50%
Th17 cells [1]: reduced; also recorded: Slight reductions
number of cells producing IL-4 [1]: no effect
percentages of CD8+ T effector cells [1]: Slight reductions
percentages of peripheral CD4+ T effector cells [1]: No significant changes
percentages of regulatory T-cells [1]: No differences
serum IL-6 [1]: reduced
allo-specific CD8 activation/proliferation [2]: dramatic reduction; also recorded: significant reduction
cytolytic activity of PBMC on A549 cells [3]: remarkable reduction
